Results on three compounds are retold here after patent US12077503B2, “Substituted cyclic amides and their use as herbicides” (FMC CORPORATION, priority 2015, dated 2024).

Common to all, as to format: in vivo
For test [1], the system named is pigweed (Amaranthus retroflexus). As to the kind of experiment: Test A preemergence. The note with it: Amaranthus retroflexus, pre-emergence, 240 h; for pest or weed control at 125 g/ha: 125 g ai/ha, 0 to 100 scale where 0 is no effect and 100 is complete control; for pest or weed control at 500 g/ha: 500 g ai/ha.
Test [2] relates to Galium (catchweed bedstraw, Galium aparine). Briefly: Test A postemergence. The note with it: Galium, post-emergence, 240 h, 125 g ai/ha. The procedure, abridged:
(§1)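 Visual injury scores from 0, no effect, to 100, complete control, were assigned versus untreated controls roughly 10 d after treatment in the greenhouse. Test chemicals, formulated with surfactant in a non-phytotoxic solvent, were applied to planted seeds as a preemergence soil spray or postemergence to one- to two-leaf plants 2 to 10 cm tall, in loam–sand soil.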

Test [3] concerns ragweed (common ragweed, Ambrosia elatior). Briefly: Test A postemergence. The note with it: Ambrosia artemisiifolia, post-emergence, 240 h, 125 g ai/ha. The procedure, abridged: as §1
The test system of test [4] is ryegrass, Italian (Italian ryegrass, Lolium multiflorum). Briefly: Test A postemergence. The note with it: Lolium multiflorum, post-emergence, 240 h, 125 g ai/ha. The procedure, abridged: as §1
Test [5] relates to blackgrass (Alopecurus myosuroides). Briefly: Test A postemergence. The note with it: Alopecurus myosuroides, post-emergence, 240 h, 125 g ai/ha. The procedure, abridged:
as §1

Test [6] concerns pigweed (Amaranthus retroflexus). As to the kind of experiment: Test A postemergence. The note with it: Amaranthus retroflexus, post-emergence, 240 h, 125 g ai/ha. The procedure, abridged: as §1
Test [7] relates to wheat (Triticum aestivum). As to the kind of experiment: Test A postemergence. The note with it: Triticum aestivum, post-emergence, 240 h, 125 g ai/ha. The procedure, abridged: as §1
In test [8] the test system is giant foxtail (Setaria faberii). As to the kind of experiment: Test A postemergence. The note with it: Setaria faberi, post-emergence, 240 h, 125 g ai/ha. In a few lines:
as §1

Test [9] relates to Kochia (Kochia scoparia). As to the kind of experiment: Test A postemergence. The note with it: Bassia scoparia, post-emergence, 240 h, 125 g ai/ha. In a few lines:
as §1

Test [10] concerns corn (Zea mays). As to the kind of experiment: Test A postemergence. The note with it: Zea mays, post-emergence, 240 h, 125 g ai/ha; for Corn plant response rating (crop injury, 0 = no effect, 100 = complete kill) at 125 g/ha: Postemergence, visual injury after approximately 10 d, 0 to 100 scale where 0 is no effect and 100 is complete control. In a few lines: as §1
Test [11] has as its system barnyardgrass (Echinochloa crus-galli). As to the kind of experiment: Test A postemergence. The note with it: Echinochloa crus-galli, post-emergence, 240 h, 125 g ai/ha. In a few lines:
as §1

For test [12], the system named is ducksalad (Heteranthera limosa). As to the kind of experiment: Test B flooded paddy test. The note with it: Heteranthera limosa, Flood, 250 g ai/ha; scale of 0 to 100 where 0 is no effect and 100 is complete control; read-out: Ducksalad plant response rating. The procedure, abridged: (§2)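 Compound goes directly into floodwater once pots are flooded 3 cm above soil, targeting plants at two leaves; the water depth is then held for the test duration. Plants sit 13–15 d in a greenhouse and are rated visually, 100 denoting complete control.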

In test [13] the test system is rice (Oryra sativa). As to the kind of experiment: Test B flooded paddy test. The note with it: Oryza sativa, Flood, 250 g ai/ha; scale of 0 to 100 where 0 is no effect and 100 is complete control; read-out: Rice plant response rating. In a few lines:
as §2

For test [14], the system named is sedge, umbrella (small-flower umbrella sedge, Cyperus difformis). As to the kind of experiment: Test B flooded paddy test. The note with it: Cyperus difformis, Flood, 250 g ai/ha; scale of 0 to 100 where 0 is no effect and 100 is complete control; read-out: Sedge, Umbrella plant response rating. The procedure, abridged: as §2
In test [15] the test system is barnyardgrass (Echinochloa crus-galli). Briefly: Test B flooded paddy test. The note with it: Echinochloa crus-galli, Flood, 250 g ai/ha; scale of 0 to 100 where 0 is no effect and 100 is complete control; read-out: Barnyardgrass plant response rating. The procedure, abridged: as §2
The mark [16] stands for this setting: preemergence, read-out: Pigweed plant response rating.
The mark [17] stands for this setting: preemergence, visual injury rating about 10 d after treatment, 0 to 100 scale (0 no effect, 100 complete control), read-out: Pigweed plant response rating.
The mark [18] stands for this setting: Postemergence, visual injury after approximately 10 d, 0 to 100 scale where 0 is no effect and 100 is complete control, read-out: Plant response rating, Galium.
Setting [19] is: Postemergence, visual injury after approximately 10 d, 0 to 100 scale where 0 is no effect and 100 is complete control, read-out: Plant response rating, Ragweed.
[20] abbreviates: Postemergence, visual injury after approximately 10 d, 0 to 100 scale where 0 is no effect and 100 is complete control, read-out: Plant response rating, Ryegrass, Italian.
Where [21] appears, read: Postemergence, visual injury after approximately 10 d, 0 to 100 scale where 0 is no effect and 100 is complete control, read-out: Plant response rating, Blackgrass.
The mark [22] stands for this setting: Postemergence, visual injury after approximately 10 d, 0 to 100 scale where 0 is no effect and 100 is complete control, read-out: Plant response rating, Pigweed.
Where [23] appears, read: Postemergence, visual injury after approximately 10 d, 0 to 100 scale where 0 is no effect and 100 is complete control, read-out: Plant response rating, Wheat.
[24] abbreviates: Postemergence, visual injury after approximately 10 d, 0 to 100 scale where 0 is no effect and 100 is complete control, read-out: Plant response rating, Foxtail, Giant.
Where [25] appears, read: Postemergence, visual injury after approximately 10 d, 0 to 100 scale where 0 is no effect and 100 is complete control, read-out: Plant response rating, Kochia.
Where [26] appears, read: Postemergence, visual injury after approximately 10 d, 0 to 100 scale where 0 is no effect and 100 is complete control, read-out: Plant response rating, Barnyardgrass.

Like-named read-outs stand apart in the source and are kept apart here.

Turning to `Cc1cc([C@H]2CN(C)C(=O)[C@@H]2C(=O)Nc2ccc(F)c(F)c2F)ccc1Cl` [Compound 931], the pest or weed control at 125 g/ha worked out at 30% in [1] (setting [16]); 40% in test [2] (setting [18]); 0% in test [3] (setting [19]); 30% in test [4] (setting [20]); 20% in test [5] (setting [21]); 20% in test [6] (setting [22]). The values for the pest or weed control at 125 g/ha in test [8] (setting [24]), in test [9] (setting [25]) and in test [11] (setting [26]) were 90%, 30% and 80%, respectively. Further, in test [1] (setting [17]), the pest or weed control at 500 g/ha stood at 40%. Besides, in test [7] (setting [23]), the plant injury at 125 g/ha is 30%. This compound showed a Corn plant response rating (crop injury, 0 = no effect, 100 = complete kill) at 125 g/ha in test [10] of 70%. Further, the pest or weed control at 250 g/ha in test [12] was found to be 60%; in [13], 0%; in test [14], 0%; in [15], 65%.
Turning to `Cc1cc([C@H]2CN(C)C(=O)[C@@H]2C(=O)Nc2ccccc2C(F)(F)F)ccc1Cl` [Compound 932], the pest or weed control at 125 g/ha in test [1] (setting [16]) was determined as 0%; in [2] (setting [18]), 40%; in test [3] (setting [19]), 0%; in [4] (setting [20]), 30%; in test [5] (setting [21]), 40%; in [6] (setting [22]) it was 40%. For the same compound, the pest or weed control at 125 g/ha turned out to be 90% in [8] (setting [24]), 30% in [9] (setting [25]) and 90% in test [11] (setting [26]). Moreover, the pest or weed control at 500 g/ha in [1] (setting [17]) turned out to be 30%. Moreover, the plant injury at 125 g/ha in test [7] (setting [23]) was determined as 30%. The Corn plant response rating (crop injury, 0 = no effect, 100 = complete kill) at 125 g/ha in test [10] came out at 20%. Besides, the pest or weed control at 250 g/ha came to 30% in test [12], 0% in test [13], 0% in [14] and 0% in [15].
For the compound `Cc1c(F)cccc1NC(=O)[C@H]1C(=O)N(C)C[C@@H]1c1cc(F)c(F)c(F)c1` [Compound 867], the pest or weed control at 125 g/ha in test [1] (setting [16]) was 0%; in test [2] (postemergence, visual injury rating after approximately 10 d, read-out: Galium plant response rating (0 to 100 scale, 0 no effect, 100 complete control)), 30%; in [3] (postemergence, visual injury rating after approximately 10 d, read-out: Ragweed plant response rating (0 to 100 scale, 0 no effect, 100 complete control)), 0%; in test [4] (postemergence, visual injury rating after approximately 10 d, read-out: Ryegrass, Italian plant response rating (0 to 100 scale, 0 no effect, 100 complete control)), 20%; in test [5] (postemergence, visual injury rating after approximately 10 d, read-out: Blackgrass plant response rating (0 to 100 scale, 0 no effect, 100 complete control)) it was 30%; in test [6] (postemergence, visual injury rating after approximately 10 d, read-out: Pigweed plant response rating (0 to 100 scale, 0 no effect, 100 complete control)) it was 0%. Besides, the pest or weed control at 125 g/ha in [8] (postemergence, visual injury rating after approximately 10 d, read-out: Foxtail, Giant plant response rating (0 to 100 scale, 0 no effect, 100 complete control)) is 80%; in test [9] (postemergence, visual injury rating after approximately 10 d, read-out: Kochia plant response rating (0 to 100 scale, 0 no effect, 100 complete control)) it was 0%; in test [11] (postemergence, visual injury rating after approximately 10 d, read-out: Barnyardgrass plant response rating (0 to 100 scale, 0 no effect, 100 complete control)), 90%. In test [1] (Preemergence, visual injury vs untreated controls after approximately 10 d, read-out: Pigweed plant response rating (0 to 100 scale where 0 is no effect and 100 is complete control)), the pest or weed control at 500 g/ha was determined as 30%. Further, the plant injury at 125 g/ha in test [7] (postemergence, visual injury rating after approximately 10 d, read-out: Wheat plant response rating (0 to 100 scale, 0 no effect, 100 complete control)) was found to be 20%; in test [10] (postemergence, visual injury rating after approximately 10 d, read-out: Corn plant response rating (0 to 100 scale, 0 no effect, 100 complete control)), 60%. The pest or weed control at 250 g/ha stood at 100% in test [12], 30% in test [13], 30% in test [14] and 65% in [15].
